Reference: patent US10392368B2, “Pyrazolo and triazolo bicyclic compounds as JAK kinase inhibitors” (THERAVANCE BIOPHARMA R&D IP, LLC, priority 2017, dated 2019)

Experiments:
[1] = Colon and plasma mouse pharmacokinetics; type: in vivo; conditions: male Balb/c mice, 10 mg/kg PO; 0.5, 2 and 6 hours
Protocol: 6 male Balb/c mice were administered 10 mg/kg of compound in 1% HPMC+0.1% Tween-80 by PO administration. At 0.5, 2 and 6 hours after dose administration, animals were anesthetized, and terminal blood samples were collected by cardiac puncture, followed by collection of colon contents and colon tissue.
Blood samples were collected into K2EDTA and stored on wet ice until processed to plasma by centrifugation (12000 rpm at 4° C.). Plasma samples were transferred to cluster tubes and placed on dry ice prior to freezer storage. The colon contents from each animal were collected at each terminal blood collection time point. The colon tissues were flushed with saline and patted dry. The colon and colon content tissues were homogenized using sterile water containing 0.1% formic acid 9:1 (water:tissue, v/w). The homogenized tissues and colon contents were transferred to cluster tubes and placed on dry ice prior to freezer storage. All samples were analyzed using LC/MS/MS against analytical standards.
The composite pharmacokinetic parameters of the compounds were determined by non-compartmental analysis using Phoenix WinNonlin Version 6 (Certara, St. Louis, Mo.) and using mean values from 2 animals/time point. For plasma concentrations below the quantification limit (BQL), the lowest concentration measurable or the BLOQ (below limit of quantification) was used.
A colon to plasma ratio was determined as the ratio of the colon AUC to the plasma AUC.

splenic NK cells = assay: Immunosuppression effects in mouse splenic natural killer (NK) cells; conditions: positive control, 30 mg/kg PO, BID
Protocol: Select compounds were assessed in the mouse splenic cell model following the same treatment paradigm used in the oxazolone-induced colitis model (assay 8).
Adult male Balb/C mice from Harlan were used for the study. The test compound and a Jak3 covalent inhibitor standard 2-propen-1-one, 1-[(2S,5R)-2-methyl-5-(7H-pyrrolo[2,3-d]pyrimidin-4-ylamino)-1-piperidinyl] (30 mg/kg, BID) as a positive control, were dosed orally for three days to naïve mice. Spleens were harvested up to 4 hours post last dose and crushed immediately for cell subtype staining. Prior to fixation, fluorophore-labelled antibodies for CD19 (FITC; B cells), CD3e (PE; pan T cells) and CD49e (APC; NK cells) were incubated with splenocyte samples from each animal to allow for simultaneous, multiple subtype % analysis on the flow cytometer. The number of total spleen cells for each animal was measured by Scepter™ 2.0 Handheld Automated Cell Counter.
The absolute number of lymphocyte subtype population (e.g., splenic B, T and NK cells) was calculated from the percentage of each subtype times the total spleen cells for each animal. A one-way ANOVA, with Fisher's LSD post hoc test, was used to compare the splenic lymphocytes number of the vehicle and test compound groups. The a level was set at p<0.05. Data were presented as the mean±SEM for each group.

[2] = tested on: IL-2 induced pSTAT5 in thymus; assay: Systemic target engagement: murine model of IL-2 induced pSTAT5 induction in thymus; type: in vivo, mouse; conditions: PO, 10, 30 and 50 mg/kg
Text: IL-2 is an important cytokine underlying the pathophysiology of gastro-intestinal diseases such as […] bowel disease (IBD; Guan and Zhang. Mediators Inflamm, 2017; 4810258). IL-2 binds to cell surface receptors activating members of the Janus family of kinases (JAK), specifically JAK3, which then phosphorylates STAT5 and subsequently activates further transcription pathways. In this model, a dose of IL-2 was delivered systemically to mice to induce the phosphorylation of STAT5 (pSTAT5) which was then measured as the endpoint.
Adult male Balb/c mice from Harlan were used in the assay. Animals were administered test compound via oral gavage (PO, 10 or 30 mg/kg for single dose studies; 10-60 mg/kg for dose response studies) on the afternoon of the day prior to study and then in the morning on the day of study. Two hours after the second PO dose administration, mice were injected intraperitoneally (i.p.) with 100 μl of an appropriate IL-2 dose (for a total of 1-5 μg/mouse depending upon IL-2 batch; R&D Systems). 90-120 minutes after IL-2 insult, thymus samples were harvested.

colon to plasma ratio (colon AUC to plasma AUC) [1]: 2.8
Structure (SMILES): C=CC(=O)N1C[C@H](Nc2ncnc3[nH]ccc23)CC[C@@H]1C [PF-06651600, 2-propen-1-one, 1-[(2S,5R)-2-methyl-5-(7H-pyrrolo[2,3-d]pyrimidin-4-ylamino)-1-piperidinyl], reference compound]
Splenic NK cell counts (splenic NK cells): significantly decreased | inhibition of pSTAT5 induction in the thymus [2]: significant inhibition
